From paper PMC4992173, “Divergent synthesis and identification of the cellular targets of deoxyelephantopins” (Nature Communications, 2016)

Molecular target: T1, PPARγ (Homo sapiens, UniProt P37231)
T1 sequence (P37231 1-505): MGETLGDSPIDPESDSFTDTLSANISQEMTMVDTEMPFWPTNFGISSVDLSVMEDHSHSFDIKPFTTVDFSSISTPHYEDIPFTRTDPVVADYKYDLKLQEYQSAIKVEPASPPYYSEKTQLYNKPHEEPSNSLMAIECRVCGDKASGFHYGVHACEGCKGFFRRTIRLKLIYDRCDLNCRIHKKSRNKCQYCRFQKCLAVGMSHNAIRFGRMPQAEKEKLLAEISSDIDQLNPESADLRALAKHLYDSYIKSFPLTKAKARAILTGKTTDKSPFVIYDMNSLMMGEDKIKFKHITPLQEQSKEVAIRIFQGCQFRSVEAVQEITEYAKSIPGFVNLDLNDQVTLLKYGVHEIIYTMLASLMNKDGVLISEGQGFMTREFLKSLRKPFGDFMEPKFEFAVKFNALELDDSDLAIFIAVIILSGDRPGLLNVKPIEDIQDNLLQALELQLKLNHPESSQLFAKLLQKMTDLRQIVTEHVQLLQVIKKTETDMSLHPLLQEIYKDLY
Experiment: IAA-competitive labelling of cysteines on PPARγ (LC-MS/MS)
Type: binding
Settings: 100 µM, 1 h
Text: Finally, we sought to understand the molecular basis for PPARγ binding by the synthetic analogues of deoxyelephantopin through identification of the precise covalently modified amino acid site. There is literature precedent for oxidized fatty acids containing an α,β-unsaturated ketone to form a covalent bond with a cysteine in the ligand-binding site of PPARγ[53]. More recently, synthetic ligands binding reversibly to a distinct site were identified. […] Bearing in mind that the structurally simplified, and thus less prone to MS/MS fragmentation, probe 23c binds PPARγ as efficiently as 24c (Supplementary Fig. 13), we treated the recombinant nuclear receptor with the former compound, digested the protein and analysed the resulting peptides by LC–MS/MS. […] While zinc fingers respond to oxidative stress through reaction at cysteines[55][56] and have been targeted by small molecules forming disulfide bridges, to the best of our knowledge, deoxyelephantopin is the first example of a small molecule that engages a zinc finger through a Michael addition. The success of Michael acceptors as a cysteine trap in current clinical development of covalent inhibitors points to the privileged reactivity profile of this moiety. Having identified the exact binding site, we then performed covalent docking of 19a using the protein–ligand docking program GOLD. […] Following the docking result, we mutated these two residues, transiently expressed the wild-type and the two PPARγ mutant forms in 293T cells and performed gel-based competitive experiments to determine relative binding affinities for 19a. […] Finally, it is interesting to note that SILAC experiment led to the identification of ZNF346, another zinc finger motif-containing protein. […]
H2O (Buffer A) and 0.1% FA in MeCN (Buffer B). Peptides were eluted into the mass spectrometer at a flow rate of 300 nL/min. over a 240 min. linear gradient (3-35% Buffer B) at 50 °C. Data was acquired in data-dependent mode (top- N = ’ […]
and isotope exclusion was enabled.
MaxQuant analysis. The MS data was analyzed with MaxQuant (V1.5.2.8) and searched against the human proteome (Uniprot, 89,649 entries) and a common list of contaminants (included in MaxQuant). The first peptide search tolerance was set to 20 ppm, 10 ppm was used for the main peptide search and fragment mass tolerance was set to 0.02 Da. The false discovery rate for peptides, proteins and sites identification was set to 1%. The minimum peptide length was set to 6 amino acids and peptide re-quantification, label-free quantification (MaxLFQ) and “ ” were enabled. The minimal number of peptides per protein was set to two. Oxidized methionines and N-terminal acetylation were searched as variable modifications and carbamidomethylation of cysteines was searched as a fixed modification. For SILAC experiments 13C6 L-lysine and 13C6 15N4 L-arginine were set as heavy isotope labels and 12C6 L-lysine and 12C6 14N4 L-arginine as light isotope labels. […]
IAA competition of 23c, 24c and DEP h ARγ. γ
(500 ng in 9 µL PBS) was treated with either 100 µM DEP, 23c, 24c or DMSO (1 µL of 10x stock in DMSO) for one hour. Samples were denatured with 6 M urea in 50 mM NH4HCO3, […]
in the dark. Samples were diluted to 2 M urea with 50 mM NH4HCO3, and digested with trypsin . μ . μ μ 2 for 12 hours at 37 °C. Samples were acidified to a final concentration of 5% acetic acid, desalted over a self-packed C18 spin column and dried. Samples were resuspended in 0.1% FA in water and analyzed by LC-MS/MS (see above). MS data was analyzed in MaxQuant (see above). […]

[1] = peptide NKCQYCR (contains Cys190)

Row | SMILES | competition of iodoacetamide labelling of the Cys190-containing tryptic peptide [%] | Ratio compound/DMSO (IAA-labelled peptide) (peptide ASGFHYGVHACEGCK) | Ratio compound/DMSO (IAA-labelled peptide) (peptide CLAVGMSHNAIR) | Ratio compound/DMSO (IAA-labelled peptide) (peptide IFQGCQFR) | Ratio compound/DMSO (IAA-labelled peptide) (peptide LKLIYDRCDLNCR) | Ratio compound/DMSO (IAA-labelled peptide) [1] | Ratio compound/DMSO (IAA-labelled peptide) (peptide TQLYNKPHEEPSNSLMAIECR) | Ratio compound/DMSO (IAA-labelled peptide) (peptide VCGDKASGFHYGVHACEGCK)
1 | C#CCC[C@H](O)[C@H]1C(=C)C(=O)O[C@@H]1c1ccccc1 [23c] | > 75 | 0.79 | 1.14 | 0.63 | 0.83 | 0.25 | 1.52 | 0.68
2 | C#CCC[C@H](OC(=O)C(=C)C)[C@H]1C(=C)C(=O)O[C@@H]1c1ccccc1 [24c] | > 75 | 0.72 | 1.40 | 0.60 | 0.87 | 0.08 | 1.72 | 0.65
3 | C=C(C)C(=O)O[C@H]1CC2=C[C@@H](C/C(C)=C/[C@H]3OC(=O)C(=C)[C@H]13)OC2=O [deoxyelephantopin] | > 75 | 1.05 | 0.94 | 0.73 | 0.96 | 0.00 | 0.94 | 0.81
